Experiments:
[1] = test system: Pyrethroid-susceptible horn fly (Haematobia irritans); assay: Treated filter paper test against adult pyrethroid-susceptible horn fly; settings: corrected for control mortality
Experimental: Test doses are expressed as µg of test substance per cm^2 of filter paper. • 1) Prepare solutions of test compound in acetone such that 800 or 1000 µL contains the amount necessary to obtain the desired dose rate. • 2) Pipette 800 or 1000 µL of test solution onto filter paper. • 3) Filter papers are dried under a fume hood. • 4) When dry, filter papers are placed in the petri dish tops. Dishes are generally held about 24 hours before test organism is added. • 5) Two- to five-day-old horn flies (pyrethroid-susceptible or -resistant) which have had two or more blood meals are used in the assay. Flies are collected into a small vial from the holding cage. Vials are then chilled in a freezer for about 4 minutes to immobilize the flies. Immobilized flies are then distributed to petri dish bottoms, 12 to 25 flies per dish, then dishes are closed and inverted. • 6) As soon as the flies become mobile (about 5 minutes), they are examined to detect any flies that are dead or injured. This number is subtracted from total number of flies in the dish. • 7) Petri dishes are held at room temperature and examined at the desired time intervals which might be 10 minutes to 6 hours. • 8) All dead flies are recorded at each examination time. […] 10) Percent mortality at any time period is calculated using the following formula: (Number of dead flies - number dead @ 5 min)/(Total number of flies - number dead @ 5 min)x 100 [formula] Percent mortality is then corrected for control mortality using Abbot's formula.

[2] = test system: ovine Trichstrongylus colubriformis larvae; assay: Systemic activity against helminth larvae in infected Mongolian gerbils (medicated diet); assay type: in vivo; settings: 500 ppm in feed; medicated diet for 3 days from ten days post infection; nematode burdens treated versus non-treated
Experimental: This test is designed to evaluate the systemic activity of test compounds against helminth parasites. Mongolian gerbils are infected orally with ovine Trichstrongylus colubrifomis larvae. Ten days post infection, the gerbils are treated with test compounds by diet incorporation. After feeding on the medicated diet for 3 days, the gerbils are sacrificed and gastrointestinal nematode populations are counted. Efficacy is determined by statistical analyses of treated versus non-treated nematode burdens.

**Q.** `F/C(=C\Cc1ccc(F)c(Oc2ccccc2)c1)C(c1ccc(Cl)cc1)C1CC1` (stereo not shown) [Compound 5, 1-[1-(p-Chlorophenyl)-2-fluoro-4-(4-fluoro-3-phenoxyphenyl)-2-butenyl]cyclopropane, (Z)-] was tested. Which mortality at 0.156 µg/cm2 ([1]; dose 0.1560 µg/cm^2, 6 hours) did it give?
**A.** Its mortality at 0.156 µg/cm2 is 0%.

**Q.** What about the mortality at 0.3125 µg/cm2 ([1]; dose 0.3125 µg/cm^2, 6 hours) of the same compound?
**A.** Its mortality at 0.3125 µg/cm2 is 5%.

**Q.** What about the mortality at 0.625 µg/cm2 ([1]; dose 0.625 µg/cm^2, 6 hours) of the same compound?
**A.** The mortality at 0.625 µg/cm2 was 27%.

**Q.** What about the mortality at 1.25 µg/cm2 ([1]; dose 1.25 µg/cm^2, 6 hours) of the same compound?
**A.** The mortality at 1.25 µg/cm2 was 88%.

**Q.** What about the mortality at 2.5 µg/cm2 ([1]; dose 2.50 µg/cm^2, 6 hours) of the same compound?
**A.** Its mortality at 2.5 µg/cm2 is 98%.

**Q.** What about the mortality at 5 µg/cm2 ([1]; dose 5.00 µg/cm^2, 6 hours) of the same compound?
**A.** The mortality at 5 µg/cm2 was 100%.

**Q.** What about the “% Efficacy” value [2] of the same compound?
**A.** The value was 46%.

— patent EP0933027A1, “Methods and compositions for protecting animals and humans against attack and infestation by arthropod and helminth parasites” (American Cyanamid Company, priority 1998, dated 1999)
